These are literature values, as cited in patent US9592318B2, “Topical analgesic composition” (Animal Ethics Pty Ltd, priority 2005, dated 2017).

One data set has as its system significant open wound. As to conditions: topical, FIG. 2 area '3'.
The conditions of data set [1]: following injection.

As to `CCN(CC)CC(=O)Nc1c(C)cccc1C` [Lignocaine], in the data set on significant open wound, the “duration of anesthesia of open wound” value was “around 30 minutes”.
As to `CCCCN1CCCCC1C(=O)Nc1c(C)cccc1C` (centres unmarked) [bupivacaine], the duration of action in data set [1] is 6 to 8 h.
